In ChEMBL document CHEMBL1817620, “Synthesis and cytotoxicity of 2-phenylquinazolin-4(3H)-one derivatives” (Eur J Med Chem, 2011):
Calls of active or inactive are those of the source. No cut-off for these calls is given here.

Legend:
HeLa [1] = test: Cytotoxicity against human HeLa cells after 4 days by MTT assay; format: functional, cell-based; settings: 96 h
DU-145 = test: Cytotoxicity against human DU145 cells after 4 days by MTT assay; format: functional, cell-based; settings: DU-145, 96 h
HL-60 = test: Cytotoxicity against human HL60 cells after 4 days by MTT assay; format: functional, cell-based; settings: HL-60, 96 h
HCT-29 = test: Cytotoxicity against human HCT29 cells after 4 days by MTT assay; format: functional, cell-based; settings: HCT-29, 96 h
MDA-MB-231 = test: Cytotoxicity against human MDA-MB-231 cells after 4 days by MTT assay; format: functional, cell-based; settings: MDA-MB-231, 96 h
HeLa [2] = test: Cell cycle arrest in human HeLa cells assessed as fold increase in G1 phase at 10 umol after 36 hrs using propidium iodide staining by flow cytometry relative to control; format: functional
HeLa [3] = test: Cell cycle arrest in human HeLa cells assessed as enhanced ratio of cell death at 10 umol after 72 hrs using propidium iodide staining by flow cytometry relative to control; format: functional
[4] = molecular target: Poly [ADP-ribose] polymerase 1 (Homo sapiens) (UniProt P09874); test: Inhibition of PARP1
Sequence of Poly [ADP-ribose] polymerase 1 (Homo sapiens) (P09874 whole entry): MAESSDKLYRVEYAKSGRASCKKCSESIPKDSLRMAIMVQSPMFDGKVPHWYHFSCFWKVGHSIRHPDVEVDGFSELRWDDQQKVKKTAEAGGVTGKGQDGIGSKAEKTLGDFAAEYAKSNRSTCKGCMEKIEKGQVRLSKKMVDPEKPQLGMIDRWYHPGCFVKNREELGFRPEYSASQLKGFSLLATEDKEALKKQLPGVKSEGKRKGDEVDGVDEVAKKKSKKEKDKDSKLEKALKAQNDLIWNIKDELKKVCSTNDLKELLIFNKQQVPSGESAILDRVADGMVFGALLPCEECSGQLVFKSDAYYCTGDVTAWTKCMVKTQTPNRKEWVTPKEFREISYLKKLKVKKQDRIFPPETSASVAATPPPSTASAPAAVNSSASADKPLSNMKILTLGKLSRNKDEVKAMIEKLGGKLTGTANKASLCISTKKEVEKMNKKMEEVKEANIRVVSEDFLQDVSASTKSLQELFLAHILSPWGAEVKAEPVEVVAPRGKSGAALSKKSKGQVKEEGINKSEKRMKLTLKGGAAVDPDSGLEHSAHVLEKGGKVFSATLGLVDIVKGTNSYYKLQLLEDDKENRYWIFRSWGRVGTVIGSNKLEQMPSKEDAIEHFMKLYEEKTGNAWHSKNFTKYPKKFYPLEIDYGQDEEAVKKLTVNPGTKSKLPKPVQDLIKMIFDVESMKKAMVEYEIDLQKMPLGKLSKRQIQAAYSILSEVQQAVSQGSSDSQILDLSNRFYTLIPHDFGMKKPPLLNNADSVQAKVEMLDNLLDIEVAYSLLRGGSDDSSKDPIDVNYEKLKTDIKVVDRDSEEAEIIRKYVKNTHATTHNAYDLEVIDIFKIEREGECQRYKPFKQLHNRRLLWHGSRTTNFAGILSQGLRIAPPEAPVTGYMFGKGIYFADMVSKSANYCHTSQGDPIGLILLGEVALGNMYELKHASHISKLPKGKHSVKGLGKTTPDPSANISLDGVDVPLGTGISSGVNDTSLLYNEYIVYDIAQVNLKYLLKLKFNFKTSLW

SMILES | IC50 (HeLa [1]) [µM] | IC50 (DU-145) [µM] | IC50 (HL-60) [µM] | IC50 (HCT-29) [µM] | IC50 (MDA-MB-231) [µM] | fold change (FC) (HeLa [2]) | Ratio (HeLa [3]) | inhibition [4]
COc1ccc(S(=O)(=O)N2CCN(C(=O)c3ccc(-c4nc5ccccc5c(=O)n4C)cc3)CC2)cc1 | 23.7 | 21.5 | 5.9 | 25.8 | > 50 | – | – | –
CC(C)(C)OC(=O)N1CCN(C(=O)c2ccc(-c3nc4ccccc4c(=O)[nH]3)cc2)CC1 | 20.7 | > 50 | 15.4 | 20.7 | 8.5 | – | – | –
Cc1ccc(S(=O)(=O)N2CCN(C(=O)c3ccc(-c4nc5ccccc5c(=O)[nH]4)cc3)CC2)cc1 | 23.5 | 18.1 | 8.4 | 10.5 | 43.5 | – | – | –
O=C(c1ccc(-c2nc3ccccc3c(=O)[nH]2)cc1)N1CCN(S(=O)(=O)c2ccccc2C(F)(F)F)CC1 | 8.3 | 24.7 | 14.1 | > 50 | 5.5 | – | – | –
O=C(c1ccc(-c2nc3ccccc3c(=O)[nH]2)cc1)N1CCN(S(=O)(=O)c2cccc(C(F)(F)F)c2)CC1 | 9.3 | 14.1 | 23.5 | 9.5 | > 50 | – | – | –
CS(=O)(=O)N1CCN(C(=O)c2ccc(-c3nc4ccccc4c(=O)[nH]3)cc2)CC1 | > 50 | 20 | 11.6 | > 50 | 6.4 | – | – | –
COc1ccc(S(=O)(=O)N2CCN(C(=O)c3ccc(-c4nc5ccccc5c(=O)n4Cc4ccccc4)cc3)CC2)cc1 | 34.2 | 16 | 6.1 | 22.5 | 48.1 | – | – | –
O=C(c1ccc(-c2nc3ccccc3c(=O)[nH]2)cc1)N1CCN(S(=O)(=O)c2cccc3ccccc23)CC1 | 11.7 | 9.9 | 7 | 11.6 | 22.2 | – | – | –
O=C(c1ccc(-c2nc3ccccc3c(=O)[nH]2)cc1)N1CCN(S(=O)(=O)Cc2ccc(Cl)cc2)CC1 | 4.4 | 27.1 | > 50 | 12.6 | > 50 | 1.2 | 8.74 | –
COc1cccc2c1C(=O)c1c(O)c3c(c(O)c1C2=O)C[C@@](O)(C(=O)CO)C[C@@H]3O[C@H]1C[C@H](N)[C@H](O)[C@H](C)O1 [DOXORUBICIN] | 3.7 | 1.9 | 0.8 | 2.5 | – | – | – | –
O=C(c1ccc(-c2nc3ccccc3c(=O)[nH]2)cc1)N1CCN(S(=O)(=O)Cc2ccccc2)CC1 | 9.1 | 7.7 | 18.7 | 2.3 | 15.8 | 1.21 | 7.04 | inactive
O=C(c1ccc(-c2nc3ccccc3c(=O)[nH]2)cc1)N1CCN(S(=O)(=O)c2ccc(Cl)cc2)CC1 | 18 | > 50 | 13.6 | > 50 | > 50 | – | – | –
CC(C)(C)OC(=O)N1CCN(C(=O)c2ccc(-c3nc4ccccc4c(=O)n3Cc3ccccc3)cc2)CC1 | 21.6 | > 50 | 2.9 | > 50 | 40.4 | – | – | –
O=C(c1ccc(-c2nc3ccccc3c(=O)[nH]2)cc1)N1CCN(S(=O)(=O)c2ccccc2)CC1 | 8.9 | 7.1 | 14.3 | 12.5 | 32.6 | – | – | –
O=C(c1ccc(-c2nc3ccccc3c(=O)[nH]2)cc1)N1CCN(S(=O)(=O)c2ccc3ccccc3c2)CC1 | 13.3 | 27.8 | 26.6 | 16.5 | > 50 | – | – | –
CC(C)S(=O)(=O)N1CCN(C(=O)c2ccc(-c3nc4ccccc4c(=O)[nH]3)cc2)CC1 | 11 | 17.4 | 7.5 | > 50 | 5.8 | – | – | –
O=C(c1ccc(-c2nc3ccccc3c(=O)[nH]2)cc1)N1CCN(S(=O)(=O)c2ccc(F)cc2)CC1 | 35.4 | 35 | 10.9 | 11.1 | 27.7 | – | – | –

SMILES | IC50 (HeLa [1]) [µM] | IC50 (DU-145) [µM] | IC50 (HL-60) [µM] | IC50 (HCT-29) [µM] | IC50 (MDA-MB-231) [µM] | fold change (FC) (HeLa [2]) | Ratio (HeLa [3]) | inhibition [4]
O=C(c1ccc(-c2nc3ccccc3c(=O)[nH]2)cc1)N1CCN(S(=O)(=O)c2cccs2)CC1 | > 50 | 21.3 | 2.2 | 15.7 | 9.4 | – | – | –
Cn1c(-c2ccc(C(=O)N3CCN(S(=O)(=O)c4ccccc4)CC3)cc2)nc2ccccc2c1=O | 14.1 | 10.4 | 5.9 | 13.3 | 9.1 | – | – | –
Cc1ccc(CS(=O)(=O)N2CCN(C(=O)c3ccc(-c4nc5ccccc5c(=O)[nH]4)cc3)CC2)cc1 | 9 | 29.6 | 16.7 | 19.5 | 7.7 | – | – | –
COc1ccc(Cn2c(-c3ccc(C(=O)N4CCN(S(=O)(=O)c5ccccc5)CC4)cc3)nc3ccccc3c2=O)cc1 | 2.9 | 2.5 | 2.6 | 8.6 | 4.2 | 1.19 | 6.83 | –
O=C(c1ccc(-c2nc3ccccc3c(=O)[nH]2)cc1)N1CCNCC1 | > 50 | 24.3 | 16.7 | > 50 | > 50 | – | – | –
Cn1c(-c2ccc(C(=O)N3CCN(C(=O)OC(C)(C)C)CC3)cc2)nc2ccccc2c1=O | 15.5 | 17.2 | 9.5 | 28 | 24.9 | – | – | –
CC(C)c1ccc(S(=O)(=O)N2CCN(C(=O)c3ccc(-c4nc5ccccc5c(=O)[nH]4)cc3)CC2)cc1 | 17.2 | 16.2 | 2.6 | 9 | 9.4 | – | – | –
O=C(c1ccc(-c2nc3ccccc3c(=O)[nH]2)cc1)N1CCN(S(=O)(=O)c2cccc3cccnc23)CC1 | 11.1 | 15.6 | 14.6 | > 50 | 6.3 | – | – | –
O=C(c1ccc(-c2nc3ccccc3c(=O)n2Cc2ccccc2)cc1)N1CCN(S(=O)(=O)c2ccccc2)CC1 | 20.1 | 15.3 | 4.2 | 23.6 | 19.3 | – | – | –
O=C(O)c1ccc(-c2nc3ccccc3c(=O)[nH]2)cc1 | > 50 | 28.1 | 11.7 | 30.6 | > 50 | – | – | –
COc1ccc(S(=O)(=O)N2CCN(C(=O)c3ccc(-c4nc5ccccc5c(=O)[nH]4)cc3)CC2)cc1 | > 50 | 27 | 7.5 | 21.6 | 5.1 | – | – | –
COc1ccc(Cn2c(-c3ccc(C(=O)N4CCN(S(=O)(=O)c5ccc(OC)cc5)CC4)cc3)nc3ccccc3c2=O)cc1 | 16.5 | 5.8 | 3.8 | 5.8 | 9.9 | 1.18 | 7.29 | –
CCCCS(=O)(=O)N1CCN(C(=O)c2ccc(-c3nc4ccccc4c(=O)[nH]3)cc2)CC1 | 17.3 | 17.9 | 14.9 | 10.3 | 1.2 | – | – | –
O=C(c1ccc(-c2nc3ccccc3c(=O)[nH]2)cc1)N1CCN(S(=O)(=O)c2ccc(C(F)(F)F)cc2)CC1 | 13.4 | 14.9 | 6.5 | 21.6 | 31.4 | – | – | –
O=C(c1ccc(-c2nc3ccccc3c(=O)[nH]2)cc1)N1CCN(S(=O)(=O)C2CC2)CC1 | > 50 | 6 | 10.8 | > 50 | 8.2 | – | – | –
O=C(c1ccc(-c2nc3ccccc3c(=O)[nH]2)cc1)N1CCN(S(=O)(=O)C2CCCC2)CC1 | 11.2 | 4.8 | 11.2 | 12.9 | 14.7 | 1.2 | 5.96 | –
O=C(c1ccc(-c2nc3ccccc3c(=O)[nH]2)cc1)N1CCN(S(=O)(=O)c2ccc([N+](=O)[O-])cc2)CC1 | 20 | 25.2 | 2 | 2.6 | 12.5 | – | – | inactive
